Values after ≈ are worked out from the molar mass of the structure shown.
Tests used:
[1] = test system: Candida albicans; test: Antifungal activity against Candida albicans at 200 ug/ml after 7 days; type: functional; conditions: 168 h
[2] = test system: Trichophyton longifusum; test: Antifungal activity against Trichophyton longifusum at 200 ug/ml after 7 days; type: functional; conditions: 168 h
[3] = test system: Fusarium solani; test: Antifungal activity against Fusarium solani at 200 ug/ml after 7 days; type: functional; conditions: 168 h
[4] = test system: Microsporum canis; test: Antifungal activity against Microsporum canis at 200 ug/ml after 7 days; type: functional; conditions: 168 h
[5] = test system: Nakaseomyces glabratus; test: Antifungal activity against Candida glabrata at 200 ug/ml after 7 days; type: functional; conditions: 168 h
[6] = test system: Aspergillus flavus; test: Antifungal activity against Aspergillus flavus at 200 ug/ml after 7 days; type: functional; conditions: 168 h
[7] = test system: Staphylococcus aureus; test: Antibacterial activity against Staphylococcus aureus at 50 ug/ml after 24 hrs by agar-well diffusion assay; type: functional; conditions: read-out: IZ
[8] = test system: Escherichia coli; test: Antibacterial activity against Escherichia coli at 50 ug/ml after 24 hrs by agar-well diffusion assay; type: functional; conditions: read-out: IZ
[9] = test system: Salmonella enterica; test: Antibacterial activity against Salmonella typhi at 50 ug/ml after 24 hrs by agar-well diffusion assay; type: functional, Salmonella enterica subsp. enterica serovar Typhi; conditions: read-out: IZ
[10] = test system: Bacillus subtilis; test: Antibacterial activity against Bacillus subtilis at 50 ug/ml after 24 hrs by agar-well diffusion assay; type: functional; conditions: read-out: IZ
[11] = Cytotoxicity against Artemia salina leach eggs; conditions: Egg, read-out: LD50 (the source's name)
[12] = test system: Pseudomonas aeruginosa; test: Antibacterial activity against Pseudomonas aeruginosa at 50 ug/ml after 24 hrs by agar-well diffusion assay; type: functional; conditions: read-out: IZ
[13] = test system: Shigella flexneri; test: Antibacterial activity against Shigella flexneri at 50 ug/ml after 24 hrs by agar-well diffusion assay; type: functional; conditions: read-out: IZ

Row | SMILES | MIC [1] [µg/mL] | MIC [2] [µg/mL] | MIC [3] [µg/mL] | MIC [4] [µg/mL] | MIC [5] [µg/mL] | inhibition at 200 µg/mL [6] [%] | inhibition at 200 µg/mL [1] [%] | inhibition at 200 µg/mL [2] [%] | inhibition at 200 µg/mL [3] [%] | zone of inhibition at 50 µg/mL [7] [mm] | zone of inhibition at 50 µg/mL [8] [mm] | inhibition at 200 µg/mL [4] [%] | zone of inhibition at 50 µg/mL [9] [mm] | zone of inhibition at 50 µg/mL [10] [mm] | LC50 [11] [mM] | zone of inhibition at 50 µg/mL [12] [mm] | inhibition at 200 µg/mL [5] [%] | zone of inhibition at 50 µg/mL [13] [mm] | MIC [6] [µg/mL]
1 | Clc1ccc(COC(Cn2ccnc2)c2ccc(Cl)cc2Cl)c(Cl)c1 (stereo not drawn) [MICONAZOLE] | 111 (≈ 266 µM) | 70 (≈ 168 µM) | 111 (≈ 266 µM) | 98.4 (≈ 236 µM) | 73.2 (≈ 176 µM) |  |  |  |  |  |  |  |  |  |  |  |  |  | 
2 | O=S(=O)(Nc1ncccn1)c1ccc(/N=C/c2cc(Br)ccc2O)cc1 |  |  |  |  |  | 78 | 34 | 81 | 48 | 16 | 17 | 0 | 13 | 15 | > 3.16 | 12 | 80 | 8 | 
3 | C[C@@H](O)[C@H]1C(=O)N2C(C(=O)O)=C(SCCNC=N)C[C@H]12 [IMIPENEM ANHYDROUS] |  |  |  |  |  |  |  |  |  | 26 | 24 |  | 25 | 26 |  | 24 |  | 20 | 
4 | Cc1cc(C)nc(NS(=O)(=O)c2ccc(/N=C/c3cc(Br)ccc3O)cc2)n1 |  |  |  |  |  | 38 | 0 | 80 | 20 | 17 | 18 | 73 | 11 | 15 | > 3.16 | 13 | 0 | 6 | 
5 | C[C@@H]1[C@H](O)[C@@H](C)/C=C/C=C/C=C/C=C/C=C/C=C/C=C/[C@H](O[C@@H]2O[C@H](C)[C@@H](O)[C@H](N)[C@@H]2O)C[C@@H]2O[C@](O)(C[C@@H](O)C[C@@H](O)[C@H](O)CC[C@@H](O)C[C@@H](O)CC(=O)O[C@H]1C)C[C@H](O)[C@H]2C(=O)O [AMPHOTERICIN B] |  |  |  |  |  |  |  |  |  |  |  |  |  |  |  |  |  |  | 20 (≈ 21.6 µM)

Reference: ChEMBL document CHEMBL1177851, “Some new biologically active metal-based sulfonamide” (Eur J Med Chem, 2010)
